Measured values: article PMC11121837, “Impact of Nitric Oxide-Release Kinetics on Antifungal Activity” (Journal of Fungi, 2024)
In brackets after ≈: the same amount, converted by molar mass.

Columns and labels:
Candida auris = assay: Susceptibility assay (MIC, broth microdilution, CLSI M27); format: cell-based; settings: for MIC / NO dose at MIC: Candidozyma auris; for MIC: 24 h; for NO dose at MIC: calculated NO dose at MIC
panel of fungal isolates = assay: Susceptibility assays, summary over the panel of fungal isolates; format: cell-based; settings: IC50 AIR-100 / MIC
Cryptococcus neoformans = assay: Susceptibility assay (MIC, broth microdilution, CLSI M27); format: cell-based; settings: for MIC / NO dose at MIC: Cryptococcus neoformans; for MIC: 72 h; for NO dose at MIC: calculated NO dose at MIC
[1] = test system: C. neoformans (ATCC 208821); assay: Checkerboard assay of NO donors with antifungals; format: cell-based, Cryptococcus neoformans
C. auris (MYA-5001) = format: cell-based, Candida auris
[2] = test system: C. albicans (ATCC MYA-2876); assay: Checkerboard assay of NO donors with antifungals; format: cell-based, Candida albicans
C. auris (ATCC MYA-5001) = assay: Checkerboard assay of NO donors with antifungals; format: cell-based, Candida auris
[3] = test system: Aspergillus fumigatus spores; assay: Susceptibility assay for sporulating fungi (MIC, EUCAST E.Def.9.4); format: cell-based
[4] = Characterization of NO release (chemiluminescence nitric oxide analyzer); format: physicochemical
[5] = test system: MatTek EpiAirway tissue (AIR-100); assay: cells; format: cell-based; settings: Homo sapiens, 24 h, read-out: IC50 (concentration needed to inhibit tissue viability by 50%)
Candida albicans = assay: Susceptibility assay (MIC, broth microdilution, CLSI M27); format: cell-based; settings: for MIC: 24 h; for NO dose at MIC: calculated NO dose at MIC
[6] = test system: C. neoformans (ATCC208821); format: cell-based, Cryptococcus neoformans
[7] = Cryptococcus neoformans ATCC MYA-4566
[8] = Cryptococcus neoformans ATCC MYA-4567
[9] = NO donor combined with 5-fluorocytosine
[10] = NO donor combined with amphotericin B
[11] = NO donor combined with butenafine
[12] = NO donor combined with caspofungin
[13] = NO donor combined with fluconazole
[14] = NO donor combined with miconazole
[15] = phosphate-buffered saline 10 mM, pH 7.4, 37 °C
[16] = ATCC14053, Candida albicans ATCC 14053
[17] = ATCC18804, Candida albicans ATCC 18804

NCCCN(CCCN)/[N+]([O-])=N/O [DPTA/NO, bis(3-aminopropyl) amine/NO]
Selectivity Index (IC50 AIR-100 / MIC) (Candida auris; C. auris ATCC MYA-5000): 28 | Selectivity Index (IC50 AIR-100 / MIC) (Candida auris; C. auris ATCC MYA-5001): 35 | Selectivity Index (IC50 AIR-100 / MIC) (Candida auris; C. auris ATCC MYA-5003): 57 | MIC (Candida auris; Candida auris ATCC MYA-5000): 625 µg/mL (≈ 3.27 mM) | MIC (Candida auris; Candida auris ATCC MYA-5001): 500 µg/mL (≈ 2.61 mM) | MIC (Candida auris; Candida auris ATCC MYA-5003): 310 µg/mL (≈ 1.62 mM) | NO dose at MIC (Candida auris; Candida auris ATCC MYA-5000): 131 µg/mL | NO dose at MIC (Candida auris; Candida auris ATCC MYA-5001): 105 µg/mL | NO dose at MIC (Candida auris; Candida auris ATCC MYA-5003): 65.3 µg/mL | selectivity indices, all strains (panel of fungal isolates): below 100 | Selectivity Index (IC50 AIR-100 / MIC) (Cryptococcus neoformans; C. neoformans ATCC 208821): 18 | Selectivity Index (IC50 AIR-100 / MIC) (Cryptococcus neoformans; C. neoformans ATCC MYA-4566): 28 | Selectivity Index (IC50 AIR-100 / MIC) (Cryptococcus neoformans; C. neoformans ATCC MYA-4567): 28 | MIC (Cryptococcus neoformans; [7]): 625 µg/mL (≈ 3.27 mM) | MIC (Cryptococcus neoformans; [8]): 625 µg/mL (≈ 3.27 mM) | MIC (Cryptococcus neoformans; ATCC208821, 72 h, Cryptococcus neoformans ATCC 208821): 1000 µg/mL (≈ 5.23 mM) | NO dose at MIC (Cryptococcus neoformans; ATCC208821, Cryptococcus neoformans ATCC 208821): 210 µg/mL | NO dose at MIC (Cryptococcus neoformans; [7]): 131 µg/mL | NO dose at MIC (Cryptococcus neoformans; [8]): 131 µg/mL | checkerboard classification [1, 9]: I (indifferent (I)) | ∑FIC [1, 9]: ≥ 1 | checkerboard classification [1, 10]: I (indifferent (I)) | ∑FIC [1, 10]: ≥ 1 | checkerboard classification [1, 11]: I (indifferent (I)) | ∑FIC [1, 11]: ≥ 1 | checkerboard classification [1, 12]: I (indifferent (I)) | ∑FIC [1, 12]: ≥ 1 | checkerboard classification [1, 13]: I (indifferent (I)) | ∑FIC [1, 13]: ≥ 1 | checkerboard classification [1, 14]: S (Synergistic (S)) | ∑FIC [1, 14]: 0.375 | change in MIC or MFCs after serial passaging (C. auris (MYA-5001)): no changes | checkerboard classification [2, 9]: I (indifferent (I)) | ∑FIC [2, 9]: ≥ 1 | checkerboard classification [2, 10]: I (indifferent (I)) | ∑FIC [2, 10]: ≥ 1 | checkerboard classification [2, 11]: I (indifferent (I)) | ∑FIC [2, 11]: ≥ 1 | checkerboard classification [2, 12]: I (indifferent (I)) | ∑FIC [2, 12]: ≥ 1 | checkerboard classification [2, 13]: I (indifferent (I)) | ∑FIC [2, 13]: ≥ 1 | checkerboard classification [2, 14]: I (indifferent (I)) | ∑FIC [2, 14]: ≥ 1 | checkerboard classification (C. auris (ATCC MYA-5001); [9]): I (indifferent (I)) | ∑FIC (C. auris (ATCC MYA-5001); [9]): ≥ 1 | checkerboard classification (C. auris (ATCC MYA-5001); [10]): I (indifferent (I)) | ∑FIC (C. auris (ATCC MYA-5001); [10]): ≥ 1 | checkerboard classification (C. auris (ATCC MYA-5001); [11]): I (indifferent (I)) | ∑FIC (C. auris (ATCC MYA-5001); [11]): ≥ 1 | checkerboard classification (C. auris (ATCC MYA-5001); [12]): I (indifferent (I)) | ∑FIC (C. auris (ATCC MYA-5001); [12]): ≥ 1 | checkerboard classification (C. auris (ATCC MYA-5001); [13]): I (indifferent (I)) | ∑FIC (C. auris (ATCC MYA-5001); [13]): ≥ 1 | checkerboard classification (C. auris (ATCC MYA-5001); [14]): A (additive (A)) | ∑FIC (C. auris (ATCC MYA-5001); [14]): 0.625 | Selectivity Index (IC50 AIR-100 / MIC) ([3]; A. fumigatus ATCC 1022): 14 | MIC ([3]; ATCC1022, Aspergillus fumigatus ATCC 1022 spores): 1250 µg/mL (≈ 6.54 mM) | NO dose at MIC ([3]; ATCC1022, Aspergillus fumigatus ATCC 1022 spores, calculated NO dose at MIC): 262 µg/mL | [NO]t, total NO released over full duration ([4]; pH 7.4): 7.0 ± 1.1 µmol/mg | [NO]max, maximum instantaneous NO concentration [4, 15]: 2867 ± 211 ppb mg^−1 | td, duration of NO release [4, 15]: 31.0 ± 3.3 h | IC50 [5]: 18000 µg/mL (≈ 94.1 mM) | MIC (Candida albicans; [16]): 625 µg/mL (≈ 3.27 mM) | NO dose at MIC (Candida albicans; [16]): 131 µg/mL | MIC (Candida albicans; [17]): 625 µg/mL (≈ 3.27 mM) | NO dose at MIC (Candida albicans; [17]): 131 µg/mL | Selectivity Index (IC50 AIR-100 / MIC) (Candida albicans; C. albicans ATCC 14053): 28 | Selectivity Index (IC50 AIR-100 / MIC) (Candida albicans; C. albicans ATCC 18804): 28 | Selectivity Index (IC50 AIR-100 / MIC) (Candida albicans; C. albicans ATCC MYA-2876): 35 | MIC (Candida albicans; Candida albicans ATCC MYA-2876): 500 µg/mL (≈ 2.61 mM) | NO dose at MIC (Candida albicans; Candida albicans ATCC MYA-2876): 105 µg/mL | outcome of passaging at sub-MIC dose [6]: yeast death after the second passage
